Measured values from paper PMC12419922, “Myristoylated Cathelicidin-DM Fused With ANG1-7: A Novel Self-Assembling Antimicrobial Peptide for the Treatment and Mechanism of Diabetic Infected Wounds” (Journal of Diabetes Research, 2025).
Where a SMILES comes first, the peptide text is derived from it.

Experiments:
[1] = tested on: HUVECs; assay: MDA, thiobarbituric acid method; format: cell-based, human; conditions: HUVEC supernatant, HG + LPS (HG + LPS increased by 1.65 times); n = 3
Method: The level of MDA was determined by the thiobarbituric acid (TBA) method. Briefly, 100 μL of cell supernatant was mixed with 200 μL of a 10% trichloroacetic acid solution of 0.67% TBA. The mixture was incubated at 95°C for 30 min, cooled on ice, and centrifuged at 12,000 × g at 4°C for 10 min. The absorbance of the supernatant was measured at 532 nm using an enzyme-labeled instrument. The experiments were repeated three times.

[2] = tested on: HUVECs; assay: Scratch wound healing assay; format: cell-based, human; conditions: HG + LPS, 20 μg/mL, n = 3; for wound healing rate (scratch assay): after 12 h; for healing area (scratch assay): at 48 h
Method: In a 6-well plate, HUVECs (2 × 10^5 cells/well) were seeded. The cells were starved in serum-free medium for 12 h, and then, a scratch was made vertically using a 200-μL pipette tip. […]

[3] = tested on: S. aureus (ATCC 25923) infected diabetic wound; assay: Diabetic mouse S. aureus-infected full-thickness skin wound model; conditions: for wound healing rate: 7th day, 20 μg/mL in PBS, 200 μL subcutaneously for 3 days, n = 4
Method: BALB/c male mice are from the Experimental Animal Center of Air Force Military Medical University. One group was fed a normal diet, and the other five groups were fed a high-fat diet for 4 weeks and then injected with 35 mg/kg streptozotocin (STZ, 35 mg/kg, Sigma) intraperitoneally for 3 days. […] After intraperitoneal injection of pentobarbital sodium (1%, […]), the dorsal hair of each animal was shaved off, and a circular full-thickness skin wound was created on the back using a 10-mm sterile mouse punch. S. aureus (ATCC 25923) was used to infect the wound site of mice, and a full-thickness wound infection model of mice was established. S. aureus was first resuscitated by operation in a biological ultra-clean table. A single colony was picked and incubated in LB medium at 37°C and 200 rpm. The concentration of the above S. aureus solution was adjusted to 1 × 10^8 CFU/mL to infect the wound of mice. Then, 24 h after S. aureus infection, three drugs, DM (20 μg/mL), ANG1-7 (20 μg/mL), and MYR-DM-ANG1-7 (20 μg/mL), were dissolved in PBS buffer, and 200 μL was injected subcutaneously for 3 days. After drug injection, the wound pus was diluted and coated with plate culture to observe the colony situation. The gross specimen imaging system (GF-7A, China) was used to record the wounds of mice on the same day and every other day after the formation of the wounds. The rubber ring with adhesive backing was used to fix the wound and prevent it from shrinking. ImageJ analysis software (NIH, Bethesda, MD, United States) was used to calculate and analyze the wound area. After 0, 3, 7, 10, and 14 days, the size of the infected wound was evaluated by rubber ring. The wound closure was measured as follows: the wound healing rate (%) = [W0 − Wn]/W0 × 100%, where W0 and Wn represent the wound area on the 0th and nth days, respectively (n = 4).
On the 14th day, the skin tissue was fixed in 4% paraformaldehyde solution, dehydrated, embedded in paraffin, sliced, and stained with hematoxylin–eosin (HE) and Masson. Skin tissue sections on Day 7 were immunofluorescently stained using rabbit anti-mouse CD31 (Cell Signaling Technology) and α-SMA (Cell Signaling Technology), and all stained sections were observed under the slide scanner (Aperio AT 2; Leica Biosystems, Germany).

[4] = tested on: HUVECs; assay: Tube formation (angiogenesis) on Matrigel; format: cell-based, human; conditions: 9 h, n = 3
Method: The formation of vascular structure was observed by matrix glue experiment, and the angiogenesis ability was evaluated in Matrigel stent (Corning, New York). After treatment in each group, 300 μL (2 × 10^5 cells/mL) HUVECs were digested and inoculated into a 24-well plate containing Matrigel scaffold. After 9 h, the formation image of the tube was photographed.

[5] = tested on: HUVECs; assay: NO secretion, Griess reaction; format: cell-based, human; conditions: HG + LPS (HG + LPS 0.5 times the original level), n = 3
Method: NO levels were determined using the Griess reaction. Briefly, 100 μL of cell culture supernatant was mixed with an equal volume of Griess reagent and incubated at room temperature in the dark for 30 min. The absorbance of the reaction mixture was measured at 540 nm using a microplate reader. Sodium nitrite (NaNO2) was used as a standard to generate a calibration curve, and the NO concentration in the samples was calculated accordingly. All experiments were independently performed in triplicate to ensure data reliability and reproducibility.

[6] = tested on: PI3K/AKT/eNOS signaling pathway, MasR in HUVECs; assay: Western blot of PI3K/AKT/eNOS signaling pathway and MasR; format: cell-based, human; conditions: inhibitor group
Method: After the specified treatments, HUVECs were harvested using a cell scraper and lysed in cell lysis buffer (Wuhan Boster Biological Engineering Co., Ltd.) for 30 min at 4°C. Total protein was quantified using a BCA protein assay kit. Lysate (20 μg) from each sample was separated by 10% sodium dodecyl sulfate–polyacrylamide gel electrophoresis (SDS-PAGE) and then transferred to a polyvinylidene fluoride (PVDF) membrane. The membrane was blocked with a fresh blocking buffer containing 5% skim milk in Tris-buffered saline with 0.1% Tween 20 (TBS-T) for 2 h at room temperature and then incubated with primary antibodies against AKT (1:1000 dilution, #4691, Cell Signaling Technology), p-AKT (1:2000 dilution, #4060, Cell Signaling Technology), PI3K (1:1000 dilution, ab191606, Abcam), p-PI3K (1:1000 dilution, ab278545, Abcam), eNOS (1:1000 dilution, #32027, Cell Signaling Technology), p-eNOS (1:1000 dilution, ab215717, Abcam), and Mas (1:1000 dilution, #85003-1-RR, Proteintech) overnight at 4°C with shaking. The membrane was washed with TBS-T for 15 min and then incubated with horseradish peroxidase (HRP)–conjugated goat anti-rabbit secondary antibody (Wuhan Sanying Biotechnology Co., Ltd.) at a 1:2000 dilution in TBS-T and 3% skim milk for 90 min at room temperature. The membrane was washed three times with TBS-T, each for 15 min, and the immune reaction signals were detected using an ECL detection method. Protein bands were detected using a chemiluminescent gel imaging system (Bio-Rad Lab, China). Protein expression was quantitatively analyzed using ImageJ software (National Institutes of Health, Bethesda, MD, United States), and the experiment was repeated three times.

CC[C@H](C)[C@H](NC(=O)[C@H](CC(C)C)NC(=O)[C@@H](NC(=O)[C@H](Cc1ccc(O)cc1)NC(=O)CNC(=O)CNC(=O)[C@H](CCCNC(=N)N)NC(=O)[C@H](CC(C)C)NC(=O)[C@H](CCCCN)NC(=O)[C@H](CC(C)C)NC(=O)[C@H](CCCCN)NC(=O)[C@H](CS)NC(=O)[C@H](CC(C)C)NC(=O)[C@H](Cc1c[nH]c2ccccc12)NC(=O)CNC(=O)[C@H](CCCCN)NC(=O)[C@H](CS)NC(=O)[C@@H]1CCCN1C(=O)[C@H](CCCCN)NC(=O)[C@H](CCCNC(=N)N)NC(=O)[C@H](CCCNC(=N)N)NC(=O)[C@H](CO)NC(=O)[C@@H](N)CO)[C@@H](C)O)C(=O)NCC(=O)N[C@@H](CO)C(=O)N[C@@H](C)C(=O)N[C@H](C(=O)N[C@@H](CC(N)=O)C(=O)N[C@@H](CC(C)C)C(=O)N[C@@H](CC(N)=O)C(=O)N[C@@H](CCCNC(=N)N)C(=O)N1CCC[C@H]1C(=O)N[C@H](C(=O)N[C@@H](Cc1ccc(O)cc1)C(=O)N[C@H](C(=O)N[C@@H](CCCNC(=N)N)C(=O)N[C@@H](C)C(=O)O)C(C)C)[C@@H](C)O)[C@@H](C)O [DM, cathelicidin-DM] (H-SSRRKPCKGWLCKLKLRGGYTLIGSATNLNRPTYVRA-OH; N-terminus and C-terminus assumed)
secretion of MDA, increased by [1]: 1.2 times | wound healing rate (scratch assay) [2]: 25.2% | healing area (scratch assay) [2]: 52.6% | wound healing rate [3]: 69.86% | fluorescence intensity of α-SMA ([3]; seventh day, vs the diabetes infection group, p < 0.01): significantly higher | length of formed blood vessels ([4]; HG + LPS (HG + LPS group 0.4 times)): 1.3 times | NO secretion in cell supernatant, increases to [5]: 1.2 times

O=c1cc(N2CCOCC2)oc2c(-c3ccccc3)cccc12 [LY294002, reference compound]
increase in p-PI3K, p-AKT, and p-eNOS levels [6]: significantly inhibited

DRVYIH [ANG1-7, angiotensin 1-7]
secretion of MDA, decreased by [1]: 0.56 times | wound healing rate (scratch assay) [2]: 44.7% | healing area (scratch assay) [2]: 72.06% | wound healing rate [3]: 40.69% | main connections of formed blood vessels ([4]; HG + LPS (HG + LPS group 0.3 times)): 1.4 times | NO secretion in cell supernatant, increases to [5]: 1.65 times
